Measured values reported in EP0012729A1, “Therapeutic compositions containing as active compound a substituted acetic acid or its salt” ("IBIS" ISTITUTO BIOCHIMICO SPERIMENTALE S.p.A., priority 1978, dated 1980).

System: Wistar rats
Experiment: Choleretic activity in the rat, bile fistula method
Format: in vivo
Conditions: for R.S. (dry residue): pooled bile; for ml of bile flow ± s.e.: second series
From the text: It is known that the primary effect of a choleretic agent is to increase the bile flow and the quantity of solid substances excreted with the bile. A good choleretic must provide this effect in a sufficiently intense and prolonged manner. In addition, as in the case of all drugs, it must have low acute toxicity and good general tolerability, but in particular must be free from toxic effects on the organ on which it is required to act, i.e. the liver, whether this is in a normal or pathological state. The analysis of the new product in comparison with the best known products for the same therapeutic use has therefore been focused on these aspects. The choleretic activity of the new product has been determined in the rat by using the bile fistula method. Wistar rats of both sexes and having a weight of between 180 and 240 g were used.
The animals, which were kept fasting for 12 hours but with free access to water, were narcotised by ethyl urethane in a dose of 1 g/kg by intra peritoneal or intramuscular injection.
After binding the animals to the retention bed, a median laparatomy was carried out, and when the bile duct had been isolated a cannula needle was inserted into it. A polythene tube was then inserted into those ani mals which were to receive the products intraduodenally, after which a su ture was carried out on the abdominal wall, and the bile was allowed to discharge for 30 minutes after inserting the cannula in the bile duct, so as to allow the discharge to become normal. The bile was then collec ted for one hour.
Having determined the volume of bile discharged during this first hour of collection (base volume), the products under examination were administered at the predetermined doses and by the predetermined methods. The bile excreted by the individual animals was then collected over each hour for a further six hours.
During the experiments, the animals were kept at ambient temperature of about 22°C, and at regular intervals of two hours received 10 ml/kg of physiological solution s.c.
The liquids were administered at a temperature of 37°C.
The bile flow and cholesterol excretion were determined on those bile fractions excreted by the animals over each hour starting from the base hour until the end of the experiment
The dry residue (R.So) was determined on the bile fraction excreted during the base hour and on the total bile fractions excreted during the sub sequent hours. For practical reasons, the determination of the dry residue and of the cholesterol (carried out by the Sperry & Webb method) were carried out on the pool of bile excreted by the entire group of animals subjected to the same treatment instead of on the bile fractions excreted by the individual animals (which was sometimes insufficient for determining the cholesterol).
In compiling the graphs, the differences between the choleresis in the treated animals and that in the controls was calculated over the considered time intervals, and expressed as a percentage of the base choleresis. For this calculation, the following formula was used: [formula] where Cn and C' represent the choleresis (in ml/kg/h for the bile flow, and in mg/kg/h for the dry residue) determined over the considered time interval for the group of treated animals and the group of controls respectively. Cb and C'b represent the base choleresis in the group of treated animals and group of controls respectively.
This index was calculated as the time for halving the maximum choleresis increase recorded under their effect.

C[C@H](CCC(=O)O)[C@H]1CC[C@H]2[C@@H]3C(=O)C[C@@H]4CC(=O)CC[C@]4(C)[C@H]3CC(=O)[C@]12C [Dehydrocholic acid, dehydrocholic acid]
Flow (25 mg/kg p.o., 0 (base hour)): 2,46±0,05 ml/kg/h | R.S. (dry residue) (25 mg/kg p.o., 0 (base hour)): 59,8 mg/kg/h | Flow (25 mg/kg p.o., 1h): 3,33±0,14 ml/kg/h | R.S. (dry residue) (25 mg/kg p.o., 1h): 84,1 mg/kg/h | Flow (25 mg/kg p.o., 2h): 1,88±0,14 ml/kg/h | Flow (25 mg/kg p.o., 3h): 2,19±0,15 ml/kg/h | Flow (25 mg/kg p.o., 4h): 1,92±0,17 ml/kg/h | Flow (25 mg/kg p.o., 5h): 1,77±0,16 ml/kg/h | Flow (25 mg/kg p.o., 6h): 1,29±0,15 ml/kg/h | R.S. (dry residue) (25 mg/kg p.o., subsequent hours 2h-6h): 41,0 mg/kg/h | Flow (50 mg/kg i.d., 0 (base hour)): 2,31±0,15 ml/kg/h | R.S. (dry residue) (50 mg/kg i.d., 0 (base hour)): 61,9 mg/kg/h | Flow (50 mg/kg i.d., 1 h): 3,82±0,26 ml/kg/h | R.S. (dry residue) (50 mg/kg i.d., 1 h): 98,5 mg/kg/h | Flow (50 mg/kg i.d., 2 h): 2,51±0,17 ml/kg/h | Flow (50 mg/kg i.d., 3 h): 2,63±0,19 ml/kg/h | Flow (50 mg/kg i.d., 4 h): 1,93±0,12 ml/kg/h | Flow (50 mg/kg i.d., 5 h): 1,87±0,13 ml/kg/h | Flow (50 mg/kg i.d., 6 h): 1,45±0,14 ml/kg/h | R.S. (dry residue) (50 mg/kg i.d., subsequent hours 2h-6h (printed under 4 h)): 44,5 mg/kg/h | Flow (100 mg/kg i.d., 0 (base hour)): 1,80±0,09 ml/kg/h | R.S. (dry residue) (100 mg/kg i.d., 0 (base hour)): 52,3 mg/kg/h | Flow (100 mg/kg i.d., 1 h): 4,59±0,24 ml/kg/h | R.S. (dry residue) (100 mg/kg i.d., 1 h): 147,0 mg/kg/h | Flow (100 mg/kg i.d., 2 h): 2,45±0,10 ml/kg/h | Flow (100 mg/kg i.d., 3 h): 1,98±0,09 ml/kg/h | Flow (100 mg/kg i.d., 4 h): 1,82±0,09 ml/kg/h | Flow (100 mg/kg i.d., 5 h): 1,82+0,08 ml/kg/h | Flow (100 mg/kg i.d., 6 h): 1,55±0,08 ml/kg/h | R.S. (dry residue) (100 mg/kg i.d., subsequent hours 2h-6h (printed under 4 h)): 49,9 mg/kg/h | Flow (100 mg/kg p.o., 0 (base hour)): 2,23±0,22 ml/kg/h | R.S. (dry residue) (100 mg/kg p.o., 0 (base hour)): 55,4 mg/kg/h | Flow (100 mg/kg p.o., 1h): 3,75±0,75 ml/kg/h | R.S. (dry residue) (100 mg/kg p.o., 1h): 98,6 mg/kg/h | Flow (100 mg/kg p.o., 2h): 2,60±0,24 ml/kg/h | Flow (100 mg/kg p.o., 3h): 2,15±0,28 ml/kg/h | Flow (100 mg/kg p.o., 4h): 2,10±0,24 ml/kg/h | Flow (100 mg/kg p.o., 5h): 1,64±0,20 ml/kg/h | Flow (100 mg/kg p.o., 6h): 1,64±0,24 ml/kg/h | R.S. (dry residue) (100 mg/kg p.o., subsequent hours 2h-6h): 45,5 mg/kg/h | Flow (200 mg/kg i.d., 0 (base hour)): 2,28±0,09 ml/kg/h | R.S. (dry residue) (200 mg/kg i.d., 0 (base hour)): 71,0 mg/kg/h | Flow (200 mg/kg i.d., 1 h): 8,10±0,38 ml/kg/h | R.S. (dry residue) (200 mg/kg i.d., 1 h): 255,0 mg/kg/h | Flow (200 mg/kg i.d., 2 h): 3,76±0,10 ml/kg/h | Flow (200 mg/kg i.d., 3 h): 2,69±0,07 ml/kg/h | Flow (200 mg/kg i.d., 4 h): 2,77±0,13 ml/kg/h | Flow (200 mg/kg i.d., 5 h): 2,34±0,11 ml/kg/h | Flow (200 mg/kg i.d., 6 h): 2,16±0,08 ml/kg/h | R.S. (dry residue) (200 mg/kg i.d., subsequent hours 2h-6h (printed under 4 h)): 67,0 mg/kg/h | Peak choleresis time of appearance (200 mg/kg p.o. (dose given for 1620 only)): 1st hour | Peak choleresis % increase (200 mg/kg p.o. (dose given for 1620 only), increase over controls as percentage of base choleresis): 94% | Duration index (200 mg/kg p.o. (dose given for 1620 only), time for halving the maximum choleresis increase): 45' | Flow (200 mg/kg p.o., 0 (base hour)): 2,75±0,17 ml/kg/h | R.S. (dry residue) (200 mg/kg p.o., 0 (base hour)): 85,8 mg/kg/h | Flow (200 mg/kg p.o., 1h): 5,39±0,24 ml/kg/h | R.S. (dry residue) (200 mg/kg p.o., 1h): 171,9 mg/kg/h | Flow (200 mg/kg p.o., 2h): 3,50±0,13 ml/kg/h | Flow (200 mg/kg p.o., 3h): 2,64±0,19 ml/kg/h | Flow (200 mg/kg p.o., 4h): 2,78±0,18 ml/kg/h | Flow (200 mg/kg p.o., 5h): 2,61±0,13 ml/kg/h | Flow (200 mg/kg p.o., 6h): 2,38±0,14 ml/kg/h | R.S. (dry residue) (200 mg/kg p.o., subsequent hours 2h-6h): 74,9 mg/kg/h | Flow (400 mg/kg p.o., 0 (base hour)): 2,53±0,10 ml/kg/h | R.S. (dry residue) (400 mg/kg p.o., 0 (base hour)): 71,8 mg/kg/h | Flow (400 mg/kg p.o., 1h): 7,68±0,20 ml/kg/h | R.S. (dry residue) (400 mg/kg p.o., 1h): 238,6 mg/kg/h | Flow (400 mg/kg p.o., 2h): 4,70±0,45 ml/kg/h | Flow (400 mg/kg p.o., 3h): 3,06±0,15 ml/kg/h | Flow (400 mg/kg p.o., 4h): 2,59±0,16 ml/kg/h | Flow (400 mg/kg p.o., 5h): 2,29±0,12 ml/kg/h | Flow (400 mg/kg p.o., 6h): 1,97±0,15 ml/kg/h | R.S. (dry residue) (400 mg/kg p.o., subsequent hours 2h-6h): 77,8 mg/kg/h | ml of bile flow ± s.e. (oral by gastric probe 25 mg/kg, 0 (base values)): 2,4±0,21 ml | ml of bile flow ± s.e. (oral by gastric probe 25 mg/kg, 1 h): 3,0±0,25 ml | ml of bile flow ± s.e. (oral by gastric probe 25 mg/kg, 2 h): 2,0±0,12 ml | ml of bile flow ± s.e. (oral by gastric probe 25 mg/kg, 3 h): 1,9±0,11 ml | ml of bile flow ± s.e. (oral by gastric probe 25 mg/kg, 4 h): 1,7±0,13 ml | ml of bile flow ± s.e. (oral by gastric probe 25 mg/kg, 5 h): 1,7±0,10 ml | ml of bile flow ± s.e. (oral by gastric probe 25 mg/kg, 6 h): 1,4±0,11 ml | ml of bile flow ± s.e. (oral by gastric probe 50 mg/kg, 0 (base values)): 2,5±0,16 ml | ml of bile flow ± s.e. (oral by gastric probe 50 mg/kg, 1 h): 3,9±0,18 ml | ml of bile flow ± s.e. (oral by gastric probe 50 mg/kg, 2 h): 2,1±0,16 ml | ml of bile flow ± s.e. (oral by gastric probe 50 mg/kg, 3 h): 1,9±0,14 ml | ml of bile flow ± s.e. (oral by gastric probe 50 mg/kg, 4 h): 1,8±0,17 ml | ml of bile flow ± s.e. (oral by gastric probe 50 mg/kg, 5 h): 1,7±0,11 ml | ml of bile flow ± s.e. (oral by gastric probe 50 mg/kg, 6 h): 1,5±0,13 ml
